Source: patent US20230096766A1, “AMINO ACID HAVING FUNCTIONAL GROUP CAPABLE OF INTERMOLECULAR HYDROGEN BONDING, PEPTIDE COMPOUND CONTAINING SAME AND METHOD FOR PRODUCTION THEREOF” (Chugai Seiyaku Kabushiki Kaisha, priority 2018, published 2023)
Read-outs that look alike come from different tables or passages of the source. Where a SMILES comes first, the peptide text is derived from it. Bridges are numbered along the chain shown (N, C = ends). [ ]: non-standard residue; d: D form. The star is where a group is joined. NMeHph(3-OMe-4-CONHMe) = CNC(=O)c1ccc(CC[C@H](NC)C(=O)O)cc1OC; NMeAbu(3,3-F2-piperidino) = CN[C@@H](CCN1CCCC(F)(F)C1)C(=O)O; NMeF = CN[C@@H](Cc1ccccc1)C(=O)O; NMeD = CN[C@@H](CC(=O)O)C(=O)O; NMeL = CN[C@@H](CC(C)C)C(=O)O; NMeV = CN[C@H](C(=O)O)C(C)C; NMeA = CN[C@@H](C)C(=O)O; Piperidide = C1CCN(*)CC1; Bn = c1ccc(C*)cc1; Sar = CNCC(=O)O; tBu = CC(C)(C)*

Experiments:
[1] = Membrane permeability test of cyclic peptides (Caco-2, modified/improved method of WO 2018/124162); details: human, Caco-2, Caco-2 (cm/sec)
Caco-2 = test: as above
[2] = membrane permeability of cyclic peptides, Caco-2

CC(C)C[C@@H]1NC(=O)[C@H](C)N(C)C(=O)C[C@@H](C(=O)N2CCCCC2)NC(=O)[C@H](CC(C)C)N(C)C(=O)CN(C)C(=O)[C@H]([C@@H](C)O)NC(=O)[C@H](C)N(C)C(=O)[C@H](Cc2ccccc2)N(C)C(=O)[C@H](COCc2ccccc2)NC(=O)[C@H](Cc2ccccc2)N(C)C(=O)[C@H](CC(C)C)N(C)C1=O [pd179] ([NMeA]L[NMeL][NMeF]S(Bn)[NMeF][NMeA]T[Sar][NMeL]D-Piperidide; lactam N-11)
Papp ([1]; Table 35, Papp, sequences having Papp ≥ 1.0 × 10^−6 at ARC = 3): 2 ×10⁻⁶ cm/s
Caco-2 (Caco-2; Table 36, Papp, sequences having Papp ≥ 1.0 × 10^−6 at ARC = 3): 2e-06 cm/s

CC[C@H](C)[C@@H]1NC(=O)[C@H](CC(C)C)N(C)C(=O)CN(C)C(=O)[C@H]([C@@H](C)O)NC(=O)[C@H](Cc2ccccc2)N(C)C(=O)[C@H](CC(C)C)NC(=O)[C@H](Cc2ccccc2)N(C)C(=O)[C@@H](CC(C)C)NC(=O)C[C@@H](C(=O)N2CCCCC2)NC(=O)[C@H](CC(C)C)N(C)C(=O)[C@H](Cc2ccccc2)N(C)C1=O [pd225] ([dL][NMeF]L[NMeF]T[Sar][NMeL]I[NMeF][NMeL]D-Piperidide; lactam N-11)
Papp (Caco-2, Caco-2 (cm/sec)): 1 ×10⁻⁶ cm/s

CNC(=O)c1ccc(CC[C@H]2C(=O)N[C@@H]([C@@H](C)O)C(=O)N(C)CC(=O)N(C)[C@@H](CC(C)C)C(=O)N[C@@H](CC(C)C)C(=O)N(C)[C@@H](Cc3ccccc3)C(=O)N(C)[C@@H](CC(C)C)C(=O)N[C@H](C(=O)N3CCCCC3)CC(=O)N[C@H](C(C)C)C(=O)N(C)[C@@H](CC(C)C)C(=O)N[C@@H](C(C)C)C(=O)N2C)cc1OC [AP226] ([dV][NMeL]V[NMeHph(3-OMe-4-CONHMe)]T[Sar][NMeL]L[NMeF][NMeL]D-Piperidide; lactam N-11)
Papp [1, 2]: 0.57 ×10⁻⁶ cm/s
Caco-2 (Caco-2; [2]): 1e-06 cm/s

CC(C)C[C@@H]1NC(=O)[C@H](Cc2ccccc2)N(C)C(=O)[C@@H](C)NC(=O)C[C@@H](C(=O)N2CCCCC2)N(C)C(=O)[C@H](Cc2ccccc2)N(C)C(=O)[C@H](Cc2ccccc2)N(C)C(=O)[C@H](COC(C)(C)C)NC(=O)[C@H](CC(C)C)N(C)C(=O)CN(C)C(=O)[C@H]([C@@H](C)O)NC(=O)[C@H](CC(C)C)N(C)C1=O [pd224] ([dA][NMeF]L[NMeL]T[Sar][NMeL]S(tBu)[NMeF][NMeF][NMeD]-Piperidide; lactam N-11)
Papp (Caco-2, Caco-2 (cm/sec)): 1 ×10⁻⁶ cm/s

CC(C)C[C@@H]1NC(=O)[C@H](Cc2ccccc2)N(C)C(=O)[C@@H](C(C)C)NC(=O)C[C@@H](C(=O)N2CCCCC2)NC(=O)[C@H](C(C)C)N(C)C(=O)[C@H](Cc2ccccc2)N(C)C(=O)[C@H](COC(C)(C)C)NC(=O)[C@H](CCN2CCCC(F)(F)C2)N(C)C(=O)CN(C)C(=O)[C@H]([C@@H](C)O)NC(=O)[C@H](CC(C)C)N(C)C1=O [pd387] ([dV][NMeF]L[NMeL]T[Sar][NMeAbu(3,3-F2-piperidino)]S(tBu)[NMeF][NMeV]D-Piperidide; lactam N-11)
Papp (Caco-2, Caco-2): 3.5 ×10⁻⁶ cm/s

CC(C)C[C@@H]1NC(=O)CN(C)C(=O)[C@H](Cc2ccccc2)N(C)C(=O)[C@@H](C)NC(=O)C[C@@H](C(=O)N2CCCCC2)NC(=O)[C@H](Cc2ccccc2)N(C)C(=O)[C@H](Cc2ccccc2)N(C)C(=O)[C@H](COC(C)(C)C)NC(=O)[C@H](CC(C)C)N(C)C(=O)[C@H](Cc2ccccc2)NC(=O)[C@H]([C@@H](C)O)NC1=O [pd248] ([dA][NMeF][Sar]LTF[NMeL]S(tBu)[NMeF][NMeF]D-Piperidide; lactam N-11)
Papp (Caco-2, Caco-2 (cm/sec) Papp): 0.014 ×10⁻⁶ cm/s
